Literature values, collected in PubChem BioAssay AID1259409 (Chemical Carcinogenesis Research Information System (CCRIS), 2018).

Tested on: rodent chemically induced tumor inhibition, incidence and multiplicity
Assay: CCRIS tumor inhibitor studies

CSS(C)(=O)=O
tumour outcome (control, treated, inhibition, significance) (Carcinogen: AZOXYMETHANE, 25843-45-2, Dose [Inhibitor]: 0, 20 PPM IN DIET FOR 32 WK BEGINNING 1 WK POST CARCINOGEN TREATMENT (STUDY DURATION: 36 WK), Route [Inhibitor]: ORAL, Species: RAT, Strain/Sex: (30,30)/(30,24), Target Tissue: Type of Lesion: SMALL INTESTINE: ADENOMA OR ADENOCARCINOMA, Dose [Carcinogen]: 15 MG/KG BW 1/WK FOR 3 WK, Promoter: NONE USED): 4/30 (13%), 1/24 (4%), 69%, not significant
tumour outcome (control, treated, inhibition, significance) (Carcinogen: AZOXYMETHANE, 25843-45-2, Dose [Inhibitor]: 0, 20 PPM IN DIET FOR 32 WK BEGINNING 1 WK POST CARCINOGEN TREATMENT (STUDY DURATION: 36 WK), Route [Inhibitor]: ORAL, Species: RAT, Strain/Sex: F344/MALE, Target Tissue: Type of Lesion: LARGE INTESTINE: ADENOMA OR ADENOCARCINOMA, Dose [Carcinogen]: 15 MG/KG BW 1/WK FOR 3 WK, Promoter: NONE USED): 17/30 (57%), 9/24 (38%), 33%, not significant
tumour outcome (control, treated, inhibition, significance) (Carcinogen: AZOXYMETHANE, 25843-45-2, Dose [Inhibitor]: 0, 100 PPM IN DIET FOR 32 WK BEGINNING 1 WK POST CARCINOGEN TREATMENT (STUDY DURATION: 36 WK), Route [Inhibitor]: ORAL, Species: RAT, Strain/Sex: F344/MALE, Target Tissue: Type of Lesion: LARGE INTESTINE: ADENOMA OR ADENOCARCINOMA, Dose [Carcinogen]: 15 MG/KG BW 1/WK FOR 3 WK, Promoter: NONE USED): 17/30 (57%), 2/28 (7%), 88%, p<0.0001
tumour outcome (control, treated, inhibition, significance) (Carcinogen: AZOXYMETHANE, 25843-45-2, Dose [Inhibitor]: 0, 100 PPM IN DIET FOR 32 WK BEGINNING 1 WK POST CARCINOGEN TREATMENT (STUDY DURATION: 36 WK), Route [Inhibitor]: ORAL, Species: RAT, Strain/Sex: F344/MALE, Target Tissue: Type of Lesion: SMALL INTESTINE: ADENOMA OR ADENOCARCINOMA, Dose [Carcinogen]: 15 MG/KG BW 1/WK FOR 3 WK, Promoter: NONE USED): 4/30 (13%), 4/28 (14%), -7%, not significant
tumour outcome (control, treated, inhibition, significance) (Carcinogen: DIETHYLNITROSAMINE, 55-18-5, Dose [Inhibitor]: 0, 100 PPM IN DIET FOR 4 WK BEGINNING 1 WK PRIOR TO CARCINOGEN TREATMENT (STUDY DURATION: 24 WK), Route [Inhibitor]: ORAL, Species: RAT, Strain/Sex: F344/MALE, Target Tissue: Type of Lesion: LIVER: HEPATOCELLULAR ADENOMA, Dose [Carcinogen]: 100 MG/KG BW 1/WK FOR 3 WK, Promoter: PHENOBARBITAL, 50-06-6): 95%, 89%, 6%, not significant
tumour outcome (control, treated, inhibition, significance) (Carcinogen: DIETHYLNITROSAMINE, 55-18-5, Dose [Inhibitor]: 0, 100 PPM IN DIET FOR 4 WK BEGINNING 1 WK PRIOR TO CARCINOGEN TREATMENT (STUDY DURATION: 24 WK), Route [Inhibitor]: ORAL, Species: RAT, Strain/Sex: F344/MALE, Target Tissue: Type of Lesion: LIVER: HEPATOCELLULAR CARCINOMA, Dose [Carcinogen]: 100 MG/KG BW 1/WK FOR 3 WK, Promoter: PHENOBARBITAL, 50-06-6): 70%, 89%, -27%, not significant
tumour outcome (control, treated, inhibition, significance) (Carcinogen: DIETHYLNITROSAMINE, 55-18-5, Dose [Inhibitor]: 0, 100 PPM IN DIET FOR 20 WK BEGINNING 1 WK POST CARCINOGEN TREATMENT (STUDY DURATION: 24 WK), Route [Inhibitor]: ORAL, Species: RAT, Strain/Sex: F344/MALE, Target Tissue: Type of Lesion: LIVER: HEPATOCELLULAR ADENOMA, Dose [Carcinogen]: 100 MG/KG BW 1/WK FOR 3 WK, Promoter: PHENOBARBITAL, 50-06-6): 95%, 55%, 42%, p<0.005
tumour outcome (control, treated, inhibition, significance) (Carcinogen: DIETHYLNITROSAMINE, 55-18-5, Dose [Inhibitor]: 0, 100 PPM IN DIET FOR 20 WK BEGINNING 1 WK POST CARCINOGEN TREATMENT (STUDY DURATION: 24 WK), Route [Inhibitor]: ORAL, Species: RAT, Strain/Sex: F344/MALE, Target Tissue: Type of Lesion: LIVER: HEPATOCELLULAR CARCINOMA, Dose [Carcinogen]: 100 MG/KG BW 1/WK FOR 3 WK, Promoter: PHENOBARBITAL, 50-06-6): 70%, 81%, -16%, not significant

O=c1c2ccccc2[se]n1-c1ccccc1
tumour outcome (control, treated, inhibition, significance) (Carcinogen: 17BETA-ESTRADIOL, 50-28-2, Dose [Inhibitor]: 0, 0.2% IN DIET BEGINNING 5 D POST CARCINOGEN DOSE (STUDY DURATION: 7.5 MO), Route [Inhibitor]: ORAL, Species: HAMSTER, Strain/Sex: SYRIAN/MALE, Target Tissue: Type of Lesion: KIDNEY: TUMOR, Dose [Carcinogen]: 25 MG PELLET REPLACED WITH A SECOND PELLET AFTER 4 MO, Promoter: NONE USED): 13/13 (100%), 8/11 (73%), 27%, p<0.05

O=C1CCN(c2ccccc2)N1
tumour outcome (control, treated, inhibition, significance) (Carcinogen: 7,12-DIMETHYLBENZ[A]ANTHRACENE, 57-97-6, Dose [Inhibitor]: 30 UMOL APPLIED 30-40 MIN BEFORE EACH TPA TREATMENT AND CONCURRENTLY WITH TPA (STUDY DURATION: 18 WK), Route [Inhibitor]: DERMAL, Species: MOUSE, Strain/Sex: CD-1/FEMALE, Target Tissue: Type of Lesion: SKIN: PAPILLOMA, Dose [Carcinogen]: 200 NMOL ONCE, Promoter: 12-O-TETRADECANOYLPHORBOL-13-ACETATE, 16561-29-8): 96%, 100%, -4%, not calculated

COc1ccc(O)cc1
tumour outcome (control, treated, inhibition, significance) (Carcinogen: BENZO[A]PYENE, 50-32-8, Dose [Inhibitor]: 0.028 MMOL/G DIET DAILY FOR 6 WK STARTING 14 D PRIOR TO THE FIRST UNTIL 1 D AFTER LAST CARCINOGEN DOSE FOLLOWED BY AN OB, Route [Inhibitor]: ORAL, Species: MOUSE, Strain/Sex: STRAIN-A/FEMALE, Target Tissue: Type of Lesion: LUNG: ADENOMA, Dose [Carcinogen]: 3 MG IN 0.2 ML COTTONSEED OIL GIVEN 3X AT 2 WK INTERVALS, Promoter: NONE USED): 100%, 100%, 0%, not significant
tumour outcome (control, treated, inhibition, significance) (Carcinogen: BENZO[A]PYENE, 50-32-8, Dose [Inhibitor]: 0.028 MMOL/G DIET DAILY STARTING 2 WK AFTER FINAL CARCINOGEN DOSE THROUGH THE END OF THE STUDY (STUDY DURATION: 14 WK), Route [Inhibitor]: ORAL, Species: MOUSE, Strain/Sex: ICR/FEMALE, Target Tissue: Type of Lesion: FORESTOMACH: PAPILLOMA, Dose [Carcinogen]: 1.5 MG IN 0.2 ML CORN OIL GIVEN 2/WK FOR 4 WK, Promoter: NONE USED): 97%, 100%, -3%, not significant
tumour outcome (control, treated, inhibition, significance) (Carcinogen: BENZO[A]PYRENE, 50-32-8, Dose [Inhibitor]: 0, 3.3 UMOL/G DIET BEGINNING 1 WK PRIOR TO CARCINOGEN TREATMENT AND CONTINUING FOR 1 WK POST CARCINOGEN TREATMENT FOLLOW, Route [Inhibitor]: ORAL, Species: MOUSE, Strain/Sex: CD-1/FEMALE, Target Tissue: Type of Lesion: FORESTOMACH: PAPILLOMA, Dose [Carcinogen]: 1 MG IN 0.2 ML CORN OIL 2/WK FOR 4 WK, Promoter: NONE USED): 85%, 46%, 46%, p<0.01
tumour outcome (control, treated, inhibition, significance) (Carcinogen: BENZO[A]PYRENE, 50-32-8, Dose [Inhibitor]: 0.03 MMOL/G OF DIET DAILY STARTING 7 D BEFORE AND CONTINUING THROUGH 3 D AFTER CARCINOGEN TREATMENT FOLLOWED BY OBSERVAT, Route [Inhibitor]: ORAL, Species: MOUSE, Strain/Sex: ICR/FEMALE, Target Tissue: Type of Lesion: FORESTOMACH: NEOPLASM, Dose [Carcinogen]: 1 MG IN 0.2 ML CORN OIL 2/WK FOR 4 WK, Promoter: NONE USED): 100%, 65%, 35%, p 0.053
tumour outcome (control, treated, inhibition, significance) (Carcinogen: BETA-PROPIOLACTONE, 57-57-8, Dose [Inhibitor]: 4.2 MG/G DIET DAILY FOR 14 WK STARTING 12 D PRIOR TO FIRST CARCINOGEN DOSE UNTIL 1 D AFTER LAST CARCINOGEN DOSE FOLLOWED, Route [Inhibitor]: ORAL, Species: MOUSE, Strain/Sex: ICR/FEMALE, Target Tissue: Type of Lesion: FORESTOMACH: PAPILLOMA OR CARCINOMA, Dose [Carcinogen]: 2 MG IN 0.1 ML PROPYLENE GLYCOL 2/WK FOR 12 WK, Promoter: NONE USED): 100%, 41%, 59%, p<0.001
tumour outcome (control, treated, inhibition, significance) (Carcinogen: BETA-PROPIOLACTONE, 57-57-8, Dose [Inhibitor]: 5.2 MG IN 0.1 ML PROPYLENE GLYCOL 2/WK FOR 12 WK GIVEN 1 HR PRIOR TO EACH CARCINOGEN ADMINISTRATION FOLLOWED BY AN OBSER, Route [Inhibitor]: GAVAGE, Species: MOUSE, Strain/Sex: ICR/FEMALE, Target Tissue: Type of Lesion: FORESTOMACH: PAPILLOMA OR CARCINOMA, Dose [Carcinogen]: 2 MG IN 0.1 ML PROPYLENE GLYCOL 2/WK FOR 12 WK, Promoter: NONE USED): 100%, 61%, 39%, p<0.001
tumour outcome (control, treated, inhibition, significance) (Carcinogen: BETA-PROPIOLACTONE, 57-57-8, Dose [Inhibitor]: 5.2 MG IN 0.1 ML PROPYLENE GLYCOL 2/WK FOR 12 WK GIVEN 4 HR PRIOR TO EACH CARCINOGEN ADMINISTRATION FOLLOWED BY AN OBSER, Route [Inhibitor]: GAVAGE, Species: MOUSE, Strain/Sex: ICR/FEMALE, Target Tissue: Type of Lesion: FORESTOMACH: PAPILLOMA OR CARCINOMA, Dose [Carcinogen]: 2 MG IN 0.1 ML PROPYLENE GLYCOL 2/WK FOR 12 WK, Promoter: NONE USED): 97%, 47%, 52%, p<0.001
